Reference: patent EP0172917A1, “AGENTS FOR TREATING IMMUNODEFICIENCY, METHOD FOR TREATING THEM, AND USE THEREOF” (Yoshitomi Pharmaceutical Industries, Ltd., priority 1984, dated 1985)

Tests used:
[1] = test system: thymus-rossete forming cells (RFC); assay: Restorative effect on reduced immune response: thymus RFC in cyclophosphamide-pretreated mice; format: in vivo, BALB/c mice; conditions: for % decrease: RFC ratio vs control; for Ratio (%) of RFC (mean ± standard error): BALB/c mice
Method: (§1) Six week-old female C57BL/6 mice were immunized with the intraperitoneal administration of 5 x 10^8 sheep red blood cells. […] On the 4th day after immunization, the numbers of thymus-rossete forming cells (RFC) in mice were assessed by the method of Bach et al [Cellular Immunology, vol. 3, p. […] Viable thymus lymphocytes which attached to four or more sheep red blood cells were determined as RFC. In control group, 0.5% methylcellulose solution was orally administered into mice.
The same procedures as shown in Experiment 1 were performed except that six week-old female BALB/c mice were immunized with 5 x 10^8 sheep red blood cells and 20 mg/kg cyclophosphamide was orally administered to mice the day before and on immunization.

[2] = test system: thymus-rossete forming cells (RFC); assay: Stimulative effect on immune response: thymus rosette forming cells after sheep red blood cell immunization; format: in vivo, C57BL/6 mice; conditions: for Ratio (%) of RFC (mean ± standard error): C57BL/6 mice, control 1.06±0.31; for % increase: RFC ratio vs control
Method: as §1

[3] = test system: male Wistar rats; assay: Acute toxicity in rats (LD50, Probit method); format: in vivo; conditions: after one week, 10080 min
Method: (§2) Compound (I) was administered orally or intraperitoneally to groups of 8 male Wistar rats weighing about 200 g. After one week, acute toxicity (LD50 value) was determined by Probit method.

[4] = test system: MeHSA-induced DTH; assay: Stimulative effect on cell-mediated immunity: MeHSA-induced delayed type hypersensitivity, footpad thickness; format: in vivo, C57BL/6 mice; conditions: for DTH (mm) (mean ± standard error): C57BL/6 mice, control 0.21±0.02; for % increase: DTH vs control
Method: (§3) Eight week-old female C57BL/6 mice were injected subcutaneously in the back with 0.1 ml of a 0.25% methylated human serum albumin (hereinafter referred to as MeHSA). Compound (I) was administered orally for 4 consecutive days from the day of the sensitization. One hour after the last administration of Compound (I), 0.025 ml of a 0.1% MeHSA solution was injected subcutaneously on the left hind^paw. The thickness of footpad was measured the 24 hours after the injection using a dissecting microscope by the method of Baba et al [Acta Pathology Japan, vol. 27, p. 165 (1977)]. The difference between the thickness of footpad before and after the injection of MeHSA was expressed as the delayed type hypersensitivity (hereinafter referred to as DTH).

[5] = test system: male dd-strain mice; assay: Acute toxicity in mice (LD50); format: in vivo; conditions: 10080 min
Method: as §2
LD50 values of Compound (I) in groups of 10 male dd-strain mice weighing 20-25 g were also determined.

[6] = test system: MeHSA-induced DTH; assay: Immunosuppressive effect: MeHSA-induced DTH in higher responder strain; format: in vivo, BALB/c mice; conditions: for DTH (mm) (mean ± standard error): BALB/c mice, control 0.96±0.09; for % inhibition: DTH vs control
Method: as §3
Effect of Compound (I) on the MeHSA-induced DTH was examined in 10 week-old female BALB/c mice, higher responder strain to the MeHSA-induced DTH, by the same procedures as described in Experiment 5.

[7] = test system: natural thymotoxic autoantibody; assay: Inhibitory effect on the production of autoantibody (NTA); format: in vivo, NZB/W F1 mice; conditions: 30 mg/kg orally three times every week
Method: To 4 week-old female NZB/W F, mice was orally administered Compound (I) three times every week and, at 7 week-old mice blood was gathered from the eyegrounds and the serum was separated. The detection of natural thymotoxic autoantibody (hereinafter referred to as NTA) was performed by the method of Takeichi et al [Cellular Immunology, vol. 60, p. 181 (1981)].

[8] = test system: spontaneous rosette forming cells; assay: Stimulative effect on reduced cell-mediated immunity: spontaneous rosette forming cells in thymus of SHR; format: in vivo, spontaneous hypertensive rats; conditions: for Ratio (%) of S-RFC (mean ± standard error): SHR, control 46.7±2.9; for % increase: S-RFC ratio vs control
Method: Twenty-four hours after the last administration, thymus was removed and cell suspension was prepared. The numbers of spontaneous rosette forming cells (hereinafter referred to as S-RFC) were measured the method of Takeichi and Boone [Cellular Immunology, vol. 27, p.

[9] = test system: peritoneal macrophages; assay: Stimulative effect on phagocytosis of macrophages; format: cell-based, rats; conditions: rat peritoneal macrophages
Method: (§4) Effect of Compound (I) on phagocytosis was examined using rat peritoneal leukocytes according to the method of Stossel et al described in Journal of Clinical Investigation, vol. 51, p. 615 (1972).
Casein sodium was injected intraperitoneally into rats. Three days later, peritoneal macrophages were harvested. Phagocytosis was assessed by the same procedures as shown in Experiment 3.

[10] = test system: rat peritoneal leukocytes; assay: Stimulative effect on phagocytosis of leukocytes; format: cell-based
Description: as §4

SMILES: O=P1(N(CCCl)CCCl)NCCCO1 (stereo not drawn) [Cyclophosphamide, cyclophosphamide, reference compound]
- % decrease ([1]; cyclophosphamide 20 mg/kg alone): 79%
- % decrease ([1]; cyclophosphamide 20 mg/kg alone, listed as cyclophosphamide): about 79%
- Ratio (%) of RFC (mean ± standard error) ([1]; cyclophosphamide 20 mg/kg orally alone, control 6.81±1.38): 1.14±0.63%

SMILES: CCN(CC)CCN1CCC2(CC1)SCC(=O)N2c1ccccc1.Cl.Cl.O [Compound (I), 8-(2-diethylaminoethyl)-3-oxo-4-phenyl-l-thia-4,8-diazaspiro-[4.5]decane dihydrochloride monohydrate]
- Ratio (%) of RFC (mean ± standard error) ([2]; 3 mg/kg orally for 4 days): 5.33±0.99 %
- Ratio (%) of RFC (mean ± standard error) ([2]; 30 mg/kg orally for 4 days): 6.28±1.27 %
- % increase ([2]; 3 mg/kg orally): 403%
- % increase ([2]; 30 mg/kg orally): 492%
- LD50 ([3]; intraperitoneal): 827 mg/kg
- LD50 ([3]; oral): >8,000 mg/kg
- DTH (mm) (mean ± standard error) ([4]; 10 mg/kg orally for 4 days): 0.22±0.02 mm
- DTH (mm) (mean ± standard error) ([4]; 100 mg/kg orally for 4 days): 0.42±0.03 mm
- DTH (mm) (mean ± standard error) ([4]; 300 mg/kg orally for 4 days): 0.33±0.03 mm
- % increase ([4]; 10 mg/kg orally): 5%
- % increase ([4]; 100 mg/kg orally): 100%
- % increase ([4]; 300 mg/kg orally): 57%
- LD50 ([5]; intraperitoneal): 474 mg/kg
- LD50 ([5]; oral): 1,841 mg/kg
- Ratio (%) of RFC (mean ± standard error) ([1]; Compound (I) 10 mg/kg orally with cyclophosphamide 20 mg/kg): 1.78±0.80%
- Ratio (%) of RFC (mean ± standard error) ([1]; Compound (I) 30 mg/kg orally with cyclophosphamide 20 mg/kg): 3.86±0.52 %
- Ratio (%) of RFC (mean ± standard error) ([1]; Compound (I) 100 mg/kg orally with cyclophosphamide 20 mg/kg): 5.26±0.64 %
- % decrease ([1]; Compound (I) 10 mg/kg with cyclophosphamide 20 mg/kg): 74%
- % decrease ([1]; Compound (I) 30 mg/kg with cyclophosphamide 20 mg/kg): 43%
- % decrease ([1]; Compound (I) 100 mg/kg with cyclophosphamide 20 mg/kg): 23%
- DTH (mm) (mean ± standard error) ([6]; 3 mg/kg orally): 0.91±0.04 mm
- DTH (mm) (mean ± standard error) ([6]; 30 mg/kg orally): 0.77±0.03 mm
- DTH (mm) (mean ± standard error) ([6]; 300 mg/kg orally): 0.71±0.04 mm
- % inhibition ([6]; 3 mg/kg orally): 5%
- % inhibition ([6]; 30 mg/kg orally): 20%
- % inhibition ([6]; 300 mg/kg orally): 36%
- NTA (%) (mean ± standard error) ([7]; dilution of serum 64, control 28.0±0.8): 9.5±0.6 %
- NTA (%) (mean ± standard error) ([7]; dilution of serum 128, control 20.3±1.1): 8.7±0.5 %
- Ratio (%) of S-RFC (mean ± standard error) ([8]; 25 mg/kg orally for 20 days): 55.0±5.2%
- Ratio (%) of S-RFC (mean ± standard error) ([8]; 100 mg/kg orally for 20 days): 57.8±3.6 %
- % increase ([8]; 25 mg/kg orally): 18%
- % increase ([8]; 100 mg/kg orally): 24%
- % increase of phagocytosis ([9]; 10 µM): 12.5%
- % increase of phagocytosis ([9]; 100 µM): 30.6%
- % increase of phagocytosis ([10]; 10 μM): 27.1%
- % increase of phagocytosis ([10]; 100 μM): 61.4%
